Values of other authors, collected in US20230285554A1, “COMBINED MEDICATION FOR TREATING SOFT TISSUE SARCOMA” (CHIA TAI TIANQING PHARMACEUTICAL GROUP CO., LTD., priority 2020, published 2023).

Tested on: STS
Details: first-line chemotherapy

| SMILES | efficacy in words |
| --- | --- |
| COc1cccc2c1C(=O)c1c(O)c3c(c(O)c1C2=O)C[C@@](O)(C(=O)CO)C[C@@H]3O[C@H]1C[C@H](N)[C@H](O)[C@H](C)O1 [adriamycin] | best efficacy |
| O=P1(NCCCl)OCCCN1CCCl (centres unmarked) [ifosfamide] | best efficacy |
